Results reported in patent publication US9782368B2, “Use of N,N-bis-2-mercaptoethyl isophthalamide” (EMERAMED LIMITED, priority 2014, dated 2017).

Tests used:
[1] = system: IL-6 and IL-8 secretion in BEAS-2B cells; experiment: Particle-induced secretion of pro-inflammatory cytokines (ELISA) in BEAS-2B cells; assay type: cell-based
Experimental: Secretion of the pro-inflammatory cytokines interleukin (IL)-6, IL-8 (as well as GM-CSF and MCP-1) into cell media in response to particle exposure was measured in A549 and BEAS-2B cells using the following method.
Lung epithelial cells were seeded at 5×10^4 in 24-well plates. After pre-incubation with NBMI, the anti-oxidant compound, N-acetyl-L-cysteine (NAC), which was used as a positive control, or vehicle, for 3 hours the medium was removed.
Fresh media containing various particles (as below) in different concentrations was in a total volume of 0.5 ml for an additional 24 hours. The supernatants were then separated from the cells by centrifugation.
IL-8, IL-6, GM-CSF and MCP-1 were measured in the cell free fluid using the DuoSet ELISA Development kit (R&D Systems, Abingdon, UK) according to manufacturer's protocol.
Exposure to medium only served as negative control. Each experiment was performed twice with 4 replicates.
The effect of pre-incubation with 50 μM NBMI on particle-induced cytokine formation was tested at various concentrations of relevant particles.

[2] = system: COPD; experiment: Treatment of patient with COPD; assay type: in vivo, human
Experimental: A retired person residing in the USA, who had been medically diagnosed with COPD several years earlier, regularly experienced coughing fits two to four times in any 24 hour period, beginning at any hour of the day or night and lasting from about 40 to 75 minutes. As a consequence of these coughing fits, the patient's breathing was shallow, their throat irritated, their voice was raspy, their energy levels very low and their quality of life very poor.

[3] = TiO2 P25 100 μg/cm^2, pre-incubation 50 μM NBMI
[4] = by the eighth day, 100 mg capsule three times daily

O=C(NCCS)c1cccc(C(=O)NCCS)c1 [NBMI, N,N-bis-2-mercaptoethyl isophthalamide]
reduction of secretion of IL-6 [1, 3]: 37% | reduction of secretion of IL-8 [1, 3]: 49% | reduction of secretion of IL-6 ([1]; Urban Dust 100 μg/cm^2, pre-incubation 50 μM NBMI): 47% | symptoms of COPD ([2]; 100 mg capsule three times daily for eight days, one patient): marked improvement in symptoms | breathing [2, 4]: significantly improved breathing | coughing fits [2, 4]: no coughing fits
